According to patent EP2573105B1, “p16INK4a derived peptides for prophylaxis and therapy of HPV-associated tumors and other p16INK4a expressing tumors” (Ruprecht-Karls-Universität Heidelberg, priority 2011, dated 2013):

Test system: Peripheral blood mononuclear cells (PBMCs)
Experiment: BrdU proliferation assay of PBMCs incubated with p16INK4a peptides
Type: cell-based, human
Details: first reacting patient; PBMCs from women with CIN2/3
Procedure: Peripheral blood mononuclear cells (PBMCs) from 13 women with p16^INK4a-expressing high grade cervical dysplasia (CIN2/3) were incubated with p16^INK4a peptides (Table 1) to determine the proliferative capacity of the immune cells by applying a BrdU assay as a global measure for lymphoproliferative potential after challenge with the p16^INK4a peptides. The BrdU-assay is a colorimetric immunoassay applied for the quantification of cell proliferation based on the measurement of the thymidine analogue 5-bromo-2'-deoxyuridine incorporation during DNA synthesis. PBMCs in IMDM medium supplemented with 10% human serum were seeded in a 96-well-microtiter-plate (flat bottom) at a density of 150.000 cells/50µl/well. Cells in each 4 replicate wells were incubated in the presence of the seven p16INK4a peptides (Table 1), tetanus toxoid (20 ng/ml, Calbiochem, La Jolla, CA) and mitogen PHA-L (5 µg/ml, Roche, Mannheim, Germany) as positive controls and no antigen as negative control for 6 days at 37°C, 5% CO2. […] The enzyme reaction was stopped by adding 25 µl/well 1N H2SO4 and optical density (OD) was measured at 450 nm (reference wavelength 620 nm). […]

GHRDVARYLRAAAGGTRGSNHARIDAAEGPSDIPD [p16INK4a_123-156]
response (proliferation, BrdU assay): showed response
